According to patent publication US20220033448A1, “METHODS FOR AGGREGATION OF PROTEINS” (priority 2011, published 2022):
Like-named read-outs stand apart in the source and are kept apart here. No end group written: not given here. *: point of attachment. Biotin = O=C1N[C@H]2[C@H](CS[C@H]2CCCCC(=O)*)N1; Ttds = NCCCOCCOCCOCCCNC(=O)CCC(=O)*

Tests used:
S. aureus MRSA 326 = experiment: Neutropenic-mouse thigh model; settings: neutropenic mice; bolus i.v. dose of 15 mg/kg 2 h after inoculation; sacrificed 4 hours post-infection
S. aureus [1] = assay type: cell-based, Staphylococcus aureus; settings: S. aureus clinical strain MRSA 204; passaged at half the MIC over 15 days
PSA = target: T1, PSA (Homo sapiens, UniProt P07288); experiment: PepBlot detection of PSA in human seminal plasma; assay type: binding; settings: 10% seminal plasma; for detection of PSA compared with monoclonal antibody: 250 nM peptide
T1 construct: A sample of 10% seminal plasma was fractionated under non-reducing condition using denaturing gel electrophoresis; from tissue; host or cells: human seminal plasma
Experimental: Semen from a volunteer was collected and allowed to liquefy at room temperature. After 2 h the seminal fluid was centrifuged at 10,000×g for 15 min to separate the plasma from sperm cells. A sample of 10% seminal plasma was fractionated under non-reducing condition using denaturing gel electrophoresis then transferred to PVDF membrane and blocked using protocol described for serum electrophoresis. Lanes of membrane were agitated separately with 250 nM of peptide b^˜[…] (SEQ ID NO: 88) or peptide b^˜[…] (SEQ ID NO: 85) or 250 pM tandem repeat peptide b^˜[…] (SEQ ID NO: 89) formulated in 10 mM MES buffer pH 5.1, 100 mM trehalose, 0.05% Tween 20 and 2.5% DMSO at 25° C. for 1 h. The membranes were rinsed in 10 mM MES buffer pH 5.1, 0.05% tween 20 and stained with HRP-conjugated SRP and visualized with ECL system. In parallel WB detection of PSA in seminal plasma was carried out by incubating the membrane with (1:5000) rabbit monoclonal anti-PSA antibody (EP1588Yi Abcam) specific to the c-terminal peptide of PSA. This was followed by staining with goat polyclonal anti-rabbit antibody conjugated to HRP and visualised using ECL system.

human EGFR2 = target: T2, human EGFR2 (Homo sapiens, UniProt P04626); experiment: EGF-induced ERK1/2 phosphorylation in HeLa cells (ELISA); assay type: cell-based; settings: EGF 25 ng/ml
T2 construct: these cells endogenously express EGFR1 and EGFR2; endogenous in cells; host or cells: HeLa
Experimental: The EGFR2 peptides are designed to target the human EGFR2 receptor. Thus, for these assays, HeLa cells were initially used, as these cells endogenously express EGFR1 and EGFR2.
For EGFR2, a similar screen was performed as for VEGFR2. Instead of using the time-consuming Western Blot method, however, an ELISA protocol was used that can detect both phospho- and total ERK1/2.

[2] = test system: Human embryonic kidney (HEK293T) cells; settings: 50 μg/ml (C30: 50 μg/ml or beyond)
S. aureus [3] = test system: S. aureus
human erythrocytes = assay type: cell-based
From the text: The detergent Tween was used as a positive control, causing 100% lysis of RBCs.

[4] = test system: human embryonic kidney cells (HEK293T cell line); settings: 100 μg/ml; 24 hours incubation
From the text: Alamar blue assay allowed monitoring of the total percentage of cell growth recovery in time in the presence of peptides.

PR8 virus = assay type: cell-based, influenza A virus (H1N1 strain)
β-Gal [5] = target: T3, β-Gal (Escherichia coli, UniProt P00722); settings: 10 μM peptide and 10 μM β-Gal; 20 mM sodium phosphate buffer, pH 6.8
Experimental: The co-aggregation of Tango 1 peptide, Tango 2 peptide and a tandem repeat of Tango 2 peptide with 13-Gal in vitro were monitored via light scattering from the apparent change in the optical density (OD) at 340 nm due to growth of aggregate particulates at room temperature. The interferor-β-Gal co-aggregation was initiated by adding equimolar molar concentration (10 μM) of either Tango 1 peptide, either Tango 2 peptide, either tandem repeat of Tango 2 peptide and β-Gal in 20 mM sodium phosphate buffer, pH 6.8 followed by gently stirring the sample at 50 rpm.
To characterise the size of the aggregates the hydrodynamic radius (RH) of β-Gal at time zero and after co-incubation with the either Tango 1 peptide, either Tango 2 peptide, either tandem repeat of Tango 2 peptide (Table 14) for 2 h was measured using dynamic light scattering (DLS), DynaPro DLS (Wyatt Technology Europe, Germany).

EGFR family = experiment: EGF-induced ERK1/2 phosphorylation in HeLa cells (cross reactivity of VEGFR2 peptides); assay type: cell-based, human; settings: EGF 25 ng/ml
Experimental: As a next step, to test the specificity of the VEGFR2 peptides, we tested their cross reactivity towards the EGFR family. Therefore, HeLa cells were treated with peptide B8 and B12 and subsequently stimulated with EGF (25ng/ml).

β-Gal [6] = target: T3, β-Gal; settings: 1 μM peptide; immobilized β-Gal
Experimental: In this in vitro experiment the affinity of different interferor peptides was measured for binding to β-gal by means of surface plasmon resonance (SPR). SPR experiments were performed at 25° C. using a Biacore T100 equipped with CM5 sensor chip (GE Healthcare.). Coupling reagents (N-ethyl-N′-(3-dimethylaminopropyl)carbodiimide (EDC), N-hydroxysuccinimide (NHS) and ethanolamine-HCI) were purchased from GE Healthcare. BSA and β-gal were purchased from Sigma-Aldrich and Roche Diagnostics, respectively. […] The proteins BSA and β-Gal were immobilized respectively, in the reference and sample channels on a CM5 sensor chip by standard amine coupling chemistry at a flow of 10 μl min^−1. The carboxymethyl dextran surface was activated by the injection of a 1:1 ratio of EDC and NHS for 7 minutes. The proteins were diluted in 10 mM sodium-acetate buffer, pH 4.5 to a final concentration of 0.2 mg m1^−1 and injected in short pulses over the activated surface until the immobilization levels reached 4000 RU or 8000 RU, for BSA and β-Gal, respectively. The remaining reactive groups were blocked with 1 M ethanolamine, pH 8. After completion of coupling, the surface was regenerated with short pulses of 50 mM NaOH and 8 M urea to remove non-covalently attached proteins. […] The peptides, dissolved in the running buffer (10 mM sodium phosphate, pH 6.8, 150 mM NaCI, 3 mM EDTA and 0.015% Tween 20) at a concentration of 1 μM, were injected for 60 s at a flow rate of 30 μl min^−1 and then allowed to dissociate for 600 s. The injection was repeated on the same surface as well as on independently immobilized surfaces. The surface was regenerated between each cycle by 30 s pulses of i) 50 mM NaOH, and ii) 8 M urea, and was allowed to stabilize for 400 s before the next cycle.
The peptide dissolved in the running buffer was injected for 60 s at a flow-rate of 301.11min′ over the reference (BSA) and sample (β-Gal) surfaces in a range of concentrations (0-4 μM, with one internal replicate) and were then allowed to dissociate for 600 s. The concentration series were repeated on the same surface (three times) as well as on independently immobilized surfaces. The surface was regenerated between each cycle by 30 s pulses of i) 50 mM NaOH, and ii) 8 M urea, and was allowed to stabilize for 400 s before the next cycle.
The data were globally fitted to a three-state model, using the Biacore T100 software, assuming an initial encounter between the peptide in solution and the protein on the chip followed by a two-step rearrangement before an identical binding site becomes available at the growing β-sheet.

T3 sequence (P00722 2-1024 with the stated changes limits assumed): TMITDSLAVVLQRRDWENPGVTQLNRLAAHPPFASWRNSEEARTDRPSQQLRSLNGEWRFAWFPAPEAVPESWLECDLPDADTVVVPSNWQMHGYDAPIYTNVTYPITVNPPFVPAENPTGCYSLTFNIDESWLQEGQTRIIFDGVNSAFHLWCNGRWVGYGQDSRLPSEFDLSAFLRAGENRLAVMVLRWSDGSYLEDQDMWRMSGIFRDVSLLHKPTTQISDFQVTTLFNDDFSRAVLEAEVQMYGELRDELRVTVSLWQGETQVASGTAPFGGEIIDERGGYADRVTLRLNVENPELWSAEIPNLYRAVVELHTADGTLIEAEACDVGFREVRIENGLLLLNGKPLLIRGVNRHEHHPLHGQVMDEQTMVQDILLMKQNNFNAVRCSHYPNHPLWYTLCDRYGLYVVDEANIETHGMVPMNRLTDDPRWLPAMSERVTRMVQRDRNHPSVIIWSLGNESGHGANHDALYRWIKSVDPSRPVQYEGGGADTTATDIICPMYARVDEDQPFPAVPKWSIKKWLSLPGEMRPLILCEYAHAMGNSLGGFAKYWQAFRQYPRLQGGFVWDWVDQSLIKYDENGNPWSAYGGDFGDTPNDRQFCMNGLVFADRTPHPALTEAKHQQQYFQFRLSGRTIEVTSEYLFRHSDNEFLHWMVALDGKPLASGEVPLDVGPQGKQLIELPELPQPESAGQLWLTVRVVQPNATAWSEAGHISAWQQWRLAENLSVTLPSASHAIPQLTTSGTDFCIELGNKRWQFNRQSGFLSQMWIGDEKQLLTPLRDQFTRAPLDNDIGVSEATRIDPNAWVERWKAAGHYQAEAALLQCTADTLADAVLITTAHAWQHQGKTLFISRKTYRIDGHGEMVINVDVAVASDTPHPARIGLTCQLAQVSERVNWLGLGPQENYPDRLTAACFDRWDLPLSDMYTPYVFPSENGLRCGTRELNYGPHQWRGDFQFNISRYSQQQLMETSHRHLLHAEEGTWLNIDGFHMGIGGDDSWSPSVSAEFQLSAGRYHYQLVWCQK
T1 sequence (P07288 25-261): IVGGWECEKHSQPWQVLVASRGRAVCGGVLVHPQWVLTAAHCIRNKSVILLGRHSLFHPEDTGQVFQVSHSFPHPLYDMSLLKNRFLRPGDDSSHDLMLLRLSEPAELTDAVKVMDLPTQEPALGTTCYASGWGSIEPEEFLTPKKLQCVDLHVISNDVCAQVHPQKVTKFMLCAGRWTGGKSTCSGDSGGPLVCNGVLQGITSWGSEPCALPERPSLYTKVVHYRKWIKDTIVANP
Experimental for B. cereus: (§1) Bacteria were grown in a shaking incubator at 37° C. and 160rpm in 50 ml BHI , using individual colonies retrieved from a fresh overnight TSA-sheep blood plate. The cultures were grown to a density of approximately 1×10^8cells/ml and then diluted to 5×10^5 cells/ml in CAMHB (Mc Farland 0.5). Each well contained 100p.I (50p.I of peptide containing MHB plus 50 μl inoculum). The final cell density was 1×10^5 to 5×10^5/ml. After addition of the cell suspension, plates were incubated at 37° C. for 18 to 24 hours. The optical density at 590 nm (OD590) of each well was measured after 5 seconds of shaking the plate using Perkin Elmer spectrophotometer (1420 Multilabel Counter Vicotr 3). […] Each well, where no growth was observed, was also plated on TSA-sheep blood agar plates, incubated at 37° C. overnight and visually inspected.
(§2) A microbroth dilution method was used with twofold serial dilutions in CAMHB (according to EMEA guidelines) was used for screening of peptide activity, with concentrations ranging from 0.3 μg/mIto 200 μg/ml.
Experimental for Corynebacterium: as §1, §2

For `CN[C@H](CC(C)C)C(=O)N[C@H]1C(=O)N[C@@H](CC(N)=O)C(=O)N[C@H]2C(=O)N[C@H]3C(=O)N[C@H](C(=O)N[C@H](C(=O)O)c4cc(O)cc(O)c4-c4cc3ccc4O)[C@H](O)c3ccc(c(Cl)c3)Oc3cc2cc(c3O[C@@H]2O[C@H](CO)[C@@H](O)[C@H](O)[C@H]2O[C@H]2C[C@](C)(N)[C@H](O)[C@H](C)O2)Oc2ccc(cc2Cl)[C@H]1O` [vancomycin, reference compound], the “reduction of expansion of initial inoculum” value (S. aureus MRSA 326) was 8.7 Log10 CFU/ml and the “fold elevation of the MIC” value (S. aureus [1]) was “increased two-fold”.
In the case of b~RQWVLTAAR [PSA interferor peptide], the “detection of PSA compared with monoclonal antibody” value (PSA) is reported as “can detect PSA to comparable levels as the antibody”.
RTGYLYISRPPRTGYLYISR [A11] was tested, and the “EGF signaling (phospho-ERK1/2)” value (human EGFR2) was “significantly and repeatedly reduced EGF signaling”.
RFFIALSRRGSRVQAYLYRR [Hit50] was tested, and the “MIC values against B.cereus ATCC” value (B. cereus) was over 100 µg/mL, the “MIC values against Corynebacterium” value (Corynebacterium) was 12.5 µg/mL and the LDH release [2] was 5%. For the same molecule, the MIC (S. aureus [3]) was 25 µg/mL, the “MIC in presence of 50% FBS” value (S. aureus [3]) was 100 µg/mL and the “MIC values against MRSA 326” value (S. aureus [3]) was 50 µg/mL. The hemolytic activity (human erythrocytes) was “no significant hemolytic activity at clinically relevant concentrations” and the “recovery of HEK cells” value [4] was 90%.
With b~RWQVLVASD the “detection of PSA compared with monoclonal antibody” value (PSA) was “can detect PSA to comparable levels as the antibody”.
RWGLLLALRPPRWGLLLALR [A5] was tested, and the “EGF signaling (phospho-ERK1/2)” value (human EGFR2) was “significantly and repeatedly reduced EGF signaling”.
With O Z RGVSILNLRGSRGVSILNLR [interferor 4] the virus replication (PR8 virus) was “still reproducibly inhibit virus replication”.
“(His)6~RVIIWSLGNRGSGSAPAARVIIWSLGNR [Tandem of Tango 2]” was tested, and the “co-aggregation kinetics with free β-Gal in solution” value (β-Gal [5]) was “fast co-aggregation kinetics”.
For “O Z RTMAWTVVRGSRTMAWIVVR (RTMAWTVVRGSRTMAWTVVR) [interferor 3]”, the virus replication (PR8 virus) was “less strong”.
In the case of “DMISYAGMDPPDMISYAGMD [B12, VEGFR2 peptide B12]”, the “ERK1/2 phosphorylation after EGF stimulation” value (EGFR family) is reported as “do not inhibit ERK1/2 phosphorylation”.
For “b~RQWVLTAARGSGSAPAARQWVLTAAR ({Biotin-Ttds}-APAARQWVLTAARGSGSAPAARQWVLTAAR) [tandem repeat PSA peptide]”, the “detection of PSA (band signal)” value (PSA; 250 pM tandem repeat peptide) was “strong band signal”.
(His)6~RLAVVLQR [Tango 1 peptide] was tested, and the “binding affinity with β-Gal observed in SPR” value (β-Gal [6]) was “weak binding affinity” and the “co-aggregation kinetics with free β-Gal in solution” value (β-Gal [5]) was “faster co-aggregation kinetics”.
With RIISAVVGRPPRIISAVVGR [A12] the “EGF signaling (phospho-ERK1/2)” value (human EGFR2) was “significantly and repeatedly reduced EGF signaling”.
With `CO[C@H]1/C=C/O[C@@]2(C)Oc3c(C)c(O)c4c(O)c(c(/C=N/N5CCN(C)CC5)c(O)c4c3C2=O)NC(=O)/C(C)=C\C=C\[C@H](C)[C@H](O)[C@@H](C)[C@@H](O)[C@@H](C)[C@H](OC(C)=O)[C@@H]1C` [rifampin, reference compound] the “fold elevation of the MIC” value (S. aureus [1]) was at most 512 fold.
With `CCOC(=O)C1=C[C@@H](OC(CC)CC)[C@H](NC(C)=O)[C@@H](N)C1` [Tamiflu, reference compound] the virus replication (PR8 virus; positive control, 1 μM or 10 nM) was “did not completely inhibit viral replication in one setup”.
In the case of `CC1(C)S[C@@H]2[C@H](NC(=O)[C@H](N)c3ccccc3)C(=O)N2[C@H]1C(=O)O` [Ampicilin, reference compound], the “maximal increase of the MIC” value (MRSA strain 326; 31 days, concentration in medium adjusted to MIC of previous day) is reported as “up to 7 fold” and the “MIC on the last day of the experiment” value (MRSA strain 326; day 31) is reported as 100 µg/mL.
For O Z RTTIMAAFRGSRTTIMAAFR [interferor 2], the virus replication (PR8 virus) was “less strong”.
